Assay results from patent US20130158075A1, “HETEROCYCLIC COMPOUNDS AS DGAT1 INHIBITORS” (PIRAMAL ENTERPRISES LIMITED, priority 2010, published 2013).

These molecules were tested against T1, hDGAT1 (Homo sapiens, UniProt O75907) (assay: In-vitro DGAT1 assay with hDGAT1 microsomes from Sf9 cells (14C oleoyl CoA, scintillation counting)). Conditions: at 1 μM.
T1 construct: made in house; host or cells: Sf9 insect cells (baculovirus); microsomal fraction
T1 sequence (O75907 1-488): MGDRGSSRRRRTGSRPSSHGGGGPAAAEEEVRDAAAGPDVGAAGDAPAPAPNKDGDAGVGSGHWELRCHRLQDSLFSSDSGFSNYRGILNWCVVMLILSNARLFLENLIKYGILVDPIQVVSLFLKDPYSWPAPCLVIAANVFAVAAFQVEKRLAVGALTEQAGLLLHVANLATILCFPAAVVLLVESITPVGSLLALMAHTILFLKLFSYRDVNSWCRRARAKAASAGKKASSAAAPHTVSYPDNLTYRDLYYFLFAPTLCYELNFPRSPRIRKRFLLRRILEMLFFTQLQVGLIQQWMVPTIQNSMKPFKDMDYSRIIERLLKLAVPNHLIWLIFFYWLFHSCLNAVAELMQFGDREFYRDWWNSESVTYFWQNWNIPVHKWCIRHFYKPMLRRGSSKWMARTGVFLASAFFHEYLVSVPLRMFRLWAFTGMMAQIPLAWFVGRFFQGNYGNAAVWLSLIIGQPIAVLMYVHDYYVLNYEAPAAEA
Assay type: biochemical
Method: Sf9 cells were grown in T25 flasks containing Graces's Insect media with 10% FBS with antibiotic (100 units/mL penicillin, 100 μg/mL streptomycin sulphate, 0.25 μg/mL Amptotericin B as Fungizone) grown in a 27° C. incubator.
hDGAT10RF expression clone (RZPDo839C09146 in pDEST vector) was obtained from RZPD, German Science Center for Genomes research, Germany. hDGAT1 bacmid DNA was obtained by transformation of the hDGAT1 expression clone into DH10Bac E. coli competent cells. Approximately 1 μg of hDGAT1 bacmid DNA was infected into Sf9 cells with Cellfectin (Invitrogen) reagent. Following infection, Sf9 cells were incubated at 27° C. for 30 min. Five hours after infection, the media was replaced with growth media containing antibiotics (100 units/mL penicillin, 100 μg/mL streptomycin sulphate, 0.25 μg/mL Amptotericin B as Fungizone) and incubated at 27° C. for 72 h. The supernatant containing the virus was centrifuged at 1500×g for 5 min, passed through 0.22 μm filter, and subsequently stored at 4° C. The virus was further amplified three more times by re-infection of Sf9 cells and the viral titer was determined by plaque assay.
Sf9 cells were seeded in spinner flasks on day 0 at a cell density of 1×10^6 and infected on day 1 with hDGAT1 baculovirus at a multiplicity of infection (MOI) of 5 and a cell density of 2×10^6. On day 3 (or 66-72 h), cells were harvested and centrifuged at 2500×g for 10 min. Pellet was resuspended in lysis buffer (100 mM sucrose, 50 mM KCl, 40 mM KH2PO4, 30 mM EDTA, pH 7.2) and passed through 21-gauge needle approximately 10 times. The mixture was centrifuged at 12,000 rpm in a Sigma 12158-H rotor at 4° C. for 30 min. The supernatant was subjected to centrifugation at 35,000 rpm in a Beckman Ti-45 rotor at 4° C. for 1 h. The resultant pellet containing the microsomes wasere resuspended overnight in 1 mL of lysis buffer and total protein concentration was estimated using Bradford Reagent. Microsomes were aliquoted and stored at −80° C.
Frozen aliquots of hDGAT1 containing microsomes were thawed (5-10 mg/mL total protein) on ice and diluted to a working stock of 1 mg/mL with DGAT Assay Buffer (DAB). The DGAT reaction assay was performed by following the procedure described in U.S. Pat. No. 6,607,893 with some modifications that are described below.
1 mL stock solution of DGAT1 substrate mixture contains 5.6 μL of ^14C oleoyl CoA (16.8 nCi) and […] of 1,2-dioleoyl-sn-glycerol (1228.5 μM) 1,2-dioleoyl-sn-glycerol stock (19.5 mM) was prepared by dissolving 25 mg of 1,2-dioleoyl-sn-glycerol (Sigma, US) in 2060 μL of acetone.
The assay was performed in duplicates in a reaction volume of 100 μL.
The reaction was started by the addition of 2.5 μL of 1 mg/mL of microsomes (iv) to the mixture of (i), (ii) and (iii), and incubated at 37° C. for 10 min. The reaction was stopped by the addition of 300 μL of Alkaline Ethanol Stop Solution Mix [AESSM; 12.5% of 100% non-denatured ethanol, 10% deionized water, 2.5% 1N NaOH, 75% stop solution (78.4% isopropanol, 19.6% n-heptane, 2% deionized water)] followed by addition of 600 μL of n-heptane. The mixture was vortexed and the triglycerides formed were extracted into the organic heptane phase. 250 μL of the heptane phase was added into 4 mL scintillation cocktail (66.72% toluene, 33.3% TritonX-100, 0.5% PPO, 0.02% POPOP) and counted on a liquid scintillation counter for 1 min. Data was collected and plotted as a function of concentration in nM versus percentage inhibition of hDGAT1 by the compounds of present invention.

“3-(5-(4-(3-(2-Chlorophenyl)ureido)phenyl)thiazol-2-yl)-2,2-diethylpropanoic acid [Example 30]” was tested, and the “Percentage inhibition of hDGAT1” value was “++ (>50 % Inhibition)”.
In the case of “3-(5-(4-(4-Tert-butyl benzamido)phenyl)oxazol-2-yl)-2,2-dimethylpropanoic acid [Example 126]”, the “Percentage inhibition of hDGAT1” value is reported as “+ (20-50% Inhibition)”.
“4-(3-(4-(3-(2,4-Difluorophenyl)ureido)phenyl)-1,2,4-oxadiazol-5-yl)butanoic acid [Example 332]” was tested, and the “Percentage inhibition of hDGAT1” value was “+ (20-50% Inhibition)”.
With “4-(5-(4-(3-(2-Fluorophenyl)-2-methylguanidino)phenyl)thiazol-2-yl)-2,2-dimethyl butanoic acid [Example 271]” the “Percentage inhibition of hDGAT1” value was “+ (20-50% Inhibition)”.
CC(C)(Cc1ncc(-c2ccc(NC(=O)c3ccc(-c4ccccc4)cc3)cc2)s1)C(=O)O [Example 44, 3-(5-(4-Biphenyl-4-ylcarboxamidophenyl)thiazol-2-yl)-2,2-dimethylpropanoic acid] was tested, and the “Percentage inhibition of hDGAT1” value was “+ (20-50% Inhibition)”.
In the case of O=C(O)CCCc1ncc(-c2ccc(NC(=O)c3ccc(-c4ccccc4)cc3)cc2)s1 [Example 61, 4-(5-(4-Biphenyl-4-ylcarboxamidophenyl)thiazol-2-yl)butanoic acid], the “Percentage inhibition of hDGAT1” value is reported as “++ (>50 % Inhibition)”.

Same assay, conditions: read-out: Percentage inhibition of hDGAT1

O=C(O)CCc1ncc(-c2ccc(NC(=O)Nc3cccc(C(F)(F)F)c3)cc2)s1 [Example 7, 3-(5-(4-(3-(3-(Trifluoromethyl)phenyl)ureido)phenyl)thiazol-2-yl)propanoic acid] and O=C(O)CCCc1ncc(-c2ccc(NC(=O)Nc3cccc(C(F)(F)F)c3)cc2)s1 [Example 49, 4-(5-(4-(3-(3-(Trifluoromethyl)phenyl)ureido)phenyl)thiazol-2-yl)butanoic acid] cannot be ordered by inhibition at 1 µM: over 50% for the first, over 50% for the second.

O=C(O)CCc1ncc(-c2ccc(NC(=O)Nc3ccccc3Cl)cc2)s1 [Example 9, 3-(5-(4-(3-(2-Chlorophenyl)ureido)phenyl)thiazol-2-yl)propanoic acid] and O=C(O)CCCc1ncc(-c2ccc(NC(=O)Nc3ccccc3Cl)cc2)s1 [Example 51, 4-(5-(4-(3-(2-Chlorophenyl)ureido)phenyl)thiazol-2-yl)butanoic acid] cannot be ordered by inhibition at 1 µM: over 50% for the first, over 50% for the second.

First: O=C(O)CCc1ncc(-c2ccc(NC(=O)NC3CCCCC3)cc2)s1 [Example 11, 3-(5-(4-(3-Cyclohexylureido)phenyl)thiazol-2-yl)propanoic acid]
Second: CC(C)(Cc1ncc(-c2ccc(NC(=O)NC3CCCCC3)cc2)s1)C(=O)O [Example 38, 3-(5-(4-(3-Cyclohexylureido)phenyl)thiazol-2-yl)-2,2-dimethylpropanoic acid]
The inhibition at 1 µM of the first is higher: over 50% for the first, 20 to 50% for the second.

O=C(O)CCc1ncc(-c2ccc(NC(=O)Nc3ccc(Cl)cc3Oc3ccccc3)cc2)s1 [Example 13, 3-(5-(4-(3-(4-Chloro-2-phenoxyphenyl)ureido)phenyl)thiazol-2-yl)propanoic acid] and O=C(O)CCCc1ncc(-c2ccc(NC(=O)Nc3ccc(Cl)cc3Oc3ccccc3)cc2)s1 [Example 55, 4-(5-(4-(3-(4-Chloro-2-phenoxyphenyl)ureido)phenyl)thiazol-2-yl)butanoic acid] cannot be ordered by inhibition at 1 µM: over 50% for the first, over 50% for the second.

First: CC(C)(C)c1ccc(C(=O)Nc2ccc(-c3cnc(CCC(=O)O)s3)cc2)cc1 [Example 15, 3-(5-(4-(4-Tert-butylbenzamido)phenyl)thiazol-2-yl)propanoic acid]
Second: CC(C)(C)c1ccc(C(=O)Nc2ccc(-c3cnc(CCCC(=O)O)s3)cc2)cc1 [Example 57, 4-(5-(4-(4-Tert-butylbenzamido)phenyl)thiazol-2-yl)butanoic acid]
The inhibition at 1 µM of the first is higher: over 50% for the first, 20 to 50% for the second.

CCCCCc1ccc(C(=O)Nc2ccc(-c3cnc(CCC(=O)O)s3)cc2)cc1 [Example 17, 3-(5-(4-(4-Pentylbenzamido)phenyl)thiazol-2-yl)propanoic acid] and CCCCCc1ccc(C(=O)Nc2ccc(-c3cnc(CCCC(=O)O)s3)cc2)cc1 [Example 59, 4-(5-(4-(4-Pentylbenzamido)phenyl)thiazol-2-yl)butanoic acid] cannot be ordered by inhibition at 1 µM: over 50% for the first, over 50% for the second.

CCOc1cc(COC)cc(C(=O)Nc2ccc(-c3cnc(CCC(=O)O)s3)cc2)c1 [Example 19, 3-(5-(4-(3-Ethoxy-5-(methoxymethyl)benzamido)phenyl)thiazol-2-yl)propanoic acid] and CCCCOc1ccc(C(=O)Nc2ccc(-c3cnc(CCC(=O)O)s3)cc2)cc1 [Example 23, 3-(5-(4-(4-Butoxybenzamido)phenyl)thiazol-2-yl)propanoic acid] cannot be ordered by inhibition at 1 µM: over 50% for the first, over 50% for the second.

O=C(O)CCc1ncc(-c2ccc(NC(=O)c3ccc4ccccc4c3)cc2)s1 [Example 21, 3-(5-(4-(2-Naphthamido)phenyl)thiazol-2-yl)propanoic acid] and Cc1ccc(NC(=O)Nc2ccc(-c3cnc(CCCC(=O)O)s3)cc2)cc1C [Example 53, 4-(5-(4-(3-(3,4-Dimethylphenyl)ureido)phenyl)thiazol-2-yl)butanoic acid] cannot be ordered by inhibition at 1 µM: over 50% for the first, over 50% for the second.

COc1ccc(S(=O)(=O)Nc2ccc(-c3cnc(CCC(=O)O)s3)cc2)c(OC)c1 [Example 25, 3-(5-(4-(2,4-Dimethoxyphenylsulfonamido)phenyl)thiazol-2-yl)propanoic acid] and COc1ccc(S(=O)(=O)Nc2ccc(-c3cnc(CCCC(=O)O)s3)cc2)c(OC)c1 [Example 63, 4-(5-(4-(2,4-Dimethoxyphenylsulfonamido)phenyl)thiazol-2-yl)butanoic acid] fall in the same range of inhibition at 1 µM: 20 to 50% for the first, 20 to 50% for the second.

Compared with CC(C)(Cc1ncc(-c2ccc(NC(=O)Nc3ccc(C(F)(F)F)cc3)cc2)s1)C(=O)O [Example 32, 2,2-Dimethyl-3-(5-(4-(3-(4-(trifluoromethyl)phenyl)ureido)phenyl)thiazol-2-yl)propanoic acid], CC(C)(Cc1ncc(-c2ccc(NC(=O)Nc3ccc(F)cc3)cc2)s1)C(=O)O [Example 34, 3-(5-(4-(3-(4-Fluorophenyl)ureido)phenyl)thiazol-2-yl)-2,2-dimethylpropanoic acid] is lower in inhibition at 1 µM: over 50% for the first, 20 to 50% for the second.

Compared with COc1ccc(NC(=O)Nc2ccc(-c3cnc(CC(C)(C)C(=O)O)s3)cc2)cc1 [Example 36, 3-(5-(4-(3-(4-Methoxyphenyl)ureido)phenyl)thiazol-2-yl)-2,2-dimethyl propanoic acid], CC(C)(Cc1ncc(-c2ccc(NC(=O)c3ccc(C(C)(C)C)cc3)cc2)s1)C(=O)O [Example 42, 3-(5-(4-(4-tert-Butylbenzamido)phenyl)thiazol-2-yl)-2,2-dimethylpropanoic acid] is lower in inhibition at 1 µM: over 50% for the first, 20 to 50% for the second.

For CC(C)(Cc1ncc(-c2ccc(NC(=O)Nc3ccc(Cl)cc3Oc3ccccc3)cc2)s1)C(=O)O [Example 40, 3-(5-(4-(3-(4-Chloro-2-phenoxyphenyl)ureido)phenyl)thiazol-2-yl)-2,2-dimethylpropanoic acid], the inhibition at 1 µM was over 50%.
